Values joined by “and” are separate entries in the source; they are usually repeats but may differ in a detail not shown here. Equal entries are not always repeated.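 Cultured in 96-well plates, cells were exposed to test compound for 48 hours across five concentrations. GI50 = concentration required for 50% inhibition of growth. At the TGI there is no net growth.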
How the values were obtained:
Test in all cases: NCI tumour cell line growth inhibition, 48 h
[1] = test system: SK-MEL-2 melanoma
[2] = test system: SNB-75 CNS
[3] = test system: HCC-2998 colon
[4] = test system: OVCAR-4 ovarian
[5] = test system: DMS 114 small cell lung
[6] = test system: HOP-18 NSCLC
[7] = test system: MDA-MB-231 breast
[8] = test system: SR leukemia
[9] = test system: 786-0 renal
[10] = test system: MDA-N
[11] = test system: BT-549 breast

Cc1c2c(cc3c1[nH]c1ccccc13)C(c1ccc(F)cc1)=NCC2
TGI [1]: 3.28 µM
TGI [2]: 4.39 µM
TGI [3]: 2.8 µM
TGI [4]: 3.12 µM
TGI [5]: 2.41 µM
TGI [6]: 14.5 µM

O=C1c2ccccc2-c2ccc(O)cc21
TGI [1]: 46.5 µM
TGI [2]: > 100 µM
TGI [4]: 44.2 µM
TGI [7]: 44.2 µM
TGI [8]: 29.7 µM
TGI [9]: > 100 µM

C[N+]1(C)C2CCC1CC(OC(=O)C(CO)c1ccccc1)C2 (configuration not stated)
TGI [1]: > 100 µM
TGI [2]: > 100 µM
TGI [10]: > 100 µM
TGI [4]: > 100 µM
TGI [7]: > 100 µM
TGI [8]: > 100 µM
TGI [11]: > 100 µM
TGI [9]: > 100 µM

CCC(C)C(NC(=O)C(CCCCN)NC(=O)C(NC(=O)C(CCC(N)=O)NC(=O)C(CCCNC(=N)N)NC(C)=O)C(C)CC)C(=O)NC(Cc1c[nH]c2ccccc12)C(=O)NC(Cc1ccccc1)C(=O)NC(CCC(N)=O)C(=O)NC(CC(N)=O)C(=O)NC(CCCNC(=N)N)C(=O)NC(CCCNC(=N)N)C(=O)NC(CCSC)C(=O)NC(CCCCN)C(=O)NC(Cc1c[nH]c2ccccc12)C(=O)NC(CCCCN)C(=O)NC(CCCCN)C(N)=O (configuration not stated)
TGI [1]: > 50 µM
TGI [10]: > 50 µM
TGI [3]: > 50 µM
TGI [4]: > 50 µM
TGI [7]: 41.3 µM
TGI [8]: > 50 µM
TGI [11]: > 50 µM
TGI [9]: 42.1 µM

Cc1c(N)nc([C@H](CC(N)=O)NC[C@H](N)C(N)=O)nc1C(=O)N[C@H](C(=O)N[C@H](C)[C@@H](O)[C@H](C)C(=O)N[C@H](C(=O)NCCc1nc(-c2nc(C(=O)NCCC[S+](C)C)cs2)cs1)[C@@H](C)O)C(OC1OC(CO)C(O)C(O)C1OC1OC(CO)C(O)C(OC(N)=O)C1O)c1cnc[nH]1 (some centres not stated)
GI50 [2]: 5.98 µM and 1.06 µM
TGI [2]: 6.42 µM and 13.4 µM and 18.8 µM
GI50 [10]: 8.86 µM and 23.8 µM
TGI [10]: 24.4 µM and 25 µM and > 100 µM
GI50 [7]: 23.3 µM and 78.8 µM
TGI [7]: 25 µM and > 100 µM
GI50 [11]: 6.48 µM and 7.49 µM
TGI [11]: 23.8 µM and 25 µM and > 100 µM
GI50 [5]: 1.29 µM
TGI [5]: 5.68 µM and 29 µM
TGI [6]: 13.3 µM

N#CCc1[nH]nc2nc(SCc3ccccc3)nc(N3CCCCC3)c12
TGI [1]: 39.3 µM
TGI [2]: 33.7 µM
TGI [3]: 31.9 µM
TGI [4]: 36.4 µM
TGI [11]: 34.1 µM
TGI [9]: 31.8 µM

O=C1CS(=O)(=O)C(c2cccc(Oc3ccccc3)c2)N1c1cccc(Cl)c1Cl (configuration not stated)
TGI [1]: 40.1 µM
TGI [2]: 92.3 µM
TGI [10]: 49.7 µM
TGI [4]: 78.9 µM
TGI [7]: 70.6 µM
TGI [8]: 52 µM
TGI [9]: 32.7 µM

S=C(NCCCCCCNC(=S)Nc1c2ccccc2nc2ccccc12)Nc1c2ccccc2nc2ccccc12
TGI [1]: > 100 µM
TGI [2]: > 100 µM
TGI [3]: > 100 µM
TGI [4]: > 100 µM
TGI [6]: > 100 µM

CCn1cc(C(=O)O)c(=O)c2cc(F)c(N3CCN(Cn4c(O)c(N=NC(=O)c5ccncc5)c5cc(Cl)ccc54)CC3)cc21
TGI [1]: 60.9 µM
TGI [2]: 70.1 µM
TGI [10]: > 100 µM
TGI [3]: > 100 µM
TGI [4]: > 100 µM
TGI [7]: > 100 µM
TGI [8]: 31 µM
TGI [11]: > 100 µM
TGI [9]: > 100 µM

CN1CCN(CCCOc2ccc3ncnc(Nc4ccc(Oc5cccc(C(F)(F)F)c5)c(Cl)c4)c3c2)CC1
GI50 [1]: 1.86 µM
TGI [1]: 3.72 µM
GI50 [2]: 1.15 µM
TGI [2]: 3.13 µM
GI50 [3]: 1.55 µM
TGI [3]: 3.16 µM
GI50 [4]: 1.76 µM
TGI [4]: 5.04 µM
GI50 [7]: 1.72 µM
TGI [7]: 3.15 µM

O=c1c2c([nH]c3nccn13)CCCC2
TGI [1]: > 10 µM
TGI [2]: > 10 µM
TGI [3]: > 10 µM
TGI [4]: > 10 µM
TGI [7]: > 10 µM
TGI [8]: > 10 µM

COC1CCC(OS(C)(=O)=O)CO1 (configuration not stated)
TGI [1]: > 100 µM
TGI [2]: > 100 µM
TGI [4]: > 100 µM
TGI [8]: > 100 µM
TGI [5]: > 100 µM

OC(c1ccc(-c2ccccc2)cc1)(c1ccc(-c2ccccc2)cc1)c1ccc(-c2ccccc2)cc1
TGI [10]: > 100 µM
TGI [4]: > 100 µM
TGI [7]: > 100 µM
TGI [8]: > 100 µM
TGI [11]: > 100 µM
TGI [9]: > 100 µM

C=C1C(C2(C)C=CC(=O)OC3(C)COC(=O)CC32)C(OC=O)C(OC(=O)C(O)C(C)CC)C2(C)C(c3ccoc3)CC(OC(C)=O)C12O (configuration not stated)
TGI [1]: > 100 µM
TGI [2]: > 100 µM
TGI [10]: > 100 µM
TGI [3]: > 100 µM
TGI [7]: > 100 µM
TGI [8]: > 100 µM
TGI [11]: > 100 µM
TGI [9]: > 100 µM

C=CCOCCCC(=O)C(=[N+]=[N-])C(=O)OC
TGI [1]: > 100 µM
TGI [2]: > 100 µM
TGI [3]: > 100 µM
TGI [4]: > 100 µM
TGI [8]: > 100 µM
TGI [9]: > 100 µM
TGI [6]: > 100 µM

O=C1c2scnc2-c2nccc3c2c1nc1ccccc13
TGI [1]: 4.34 µM
TGI [2]: 1.92 µM
TGI [3]: 2.48 µM
TGI [4]: 2.92 µM
TGI [8]: > 100 µM
TGI [11]: 2.94 µM

CO[C@@]12C[C@@H](CNC(=O)c3cc(Br)c[nH]3)O[C@@H]1NC(=O)N2
TGI [1]: > 100 µM
TGI [2]: > 100 µM
TGI [4]: > 100 µM
TGI [7]: > 100 µM
TGI [11]: > 100 µM
TGI [9]: > 100 µM

COc1ccc(/C=c2/[nH]c(=O)/c(=C\c3ccc(OCc4ccccc4)cn3)[nH]c2=O)cc1
TGI [1]: > 100 µM
TGI [2]: 61 µM
TGI [10]: > 100 µM
TGI [3]: > 100 µM
TGI [4]: > 100 µM
TGI [7]: > 100 µM
TGI [8]: > 100 µM
TGI [11]: > 100 µM
TGI [9]: > 100 µM

CN(C)CCNc1c([N+](=O)[O-])cc2c3c(cccc13)C(=O)N(CCN(C)C)C2=O
TGI [1]: 3.39 µM
TGI [2]: 4.18 µM
TGI [3]: 2.72 µM
TGI [4]: 5.84 µM
TGI [5]: 3.1 µM
TGI [6]: 4.6 µM

O=C(O)C(Cc1ccccc1)N1C(=O)c2ccccc2C1=O (configuration not stated)
TGI [1]: > 100 µM
TGI [10]: > 100 µM
TGI [3]: > 100 µM
TGI [4]: > 100 µM
TGI [7]: > 100 µM
TGI [11]: > 100 µM
TGI [9]: > 100 µM

CC(=O)OCCC[C@@H]1C(=C(C)C)CCC2[C@@]1(C)CC[C@@]1(C)C[C@](C)(CCC=C(C)C)CC[C@]21C (some centres not stated)
TGI [2]: > 100 µM
TGI [10]: > 100 µM
TGI [3]: > 100 µM
TGI [4]: > 100 µM
TGI [7]: > 100 µM
TGI [11]: > 100 µM
TGI [9]: > 100 µM

CCN(CC)/C(=C\Cl)Nc1ccccn1
TGI [1]: > 100 µM
TGI [2]: > 100 µM
TGI [3]: > 100 µM
TGI [4]: > 100 µM
TGI [9]: > 100 µM
TGI [5]: > 100 µM
TGI [6]: > 100 µM

OC1C=C2C3CN(Cc4cc5c(cc43)OCO5)[C@H]2C[C@@H]1O (some centres not stated)
TGI [1]: 11.9 µM
TGI [2]: 4.56 µM
TGI [10]: 37.3 µM
TGI [4]: 25.9 µM
TGI [7]: 68.5 µM
TGI [8]: > 100 µM
TGI [11]: 14.7 µM
TGI [9]: 36.3 µM

O=C1CC(N2C(=O)/C(=C/C(Cl)=C\c3ccc([N+](=O)[O-])cc3)SC2=S)C(=O)N1c1ccc(Cl)cc1 (configuration not stated)
GI50 [1]: 3.12 µM
TGI [1]: 32.1 µM
GI50 [3]: 1.59 µM
TGI [3]: 3.03 µM
GI50 [4]: 5.55 µM
TGI [4]: > 100 µM
GI50 [7]: 3.75 µM
TGI [7]: 47.8 µM
GI50 [8]: 0.544 µM
TGI [8]: 14.2 µM
GI50 [11]: 1.75 µM
TGI [11]: 3.74 µM

O=C1CCC(NC(=O)Cc2ccc(O)cc2)C(=O)N1 (configuration not stated)
TGI [2]: > 2500 µM
TGI [4]: > 2500 µM
TGI [5]: > 2500 µM
TGI [6]: > 2500 µM

O=C(NN1C(=O)/C(=C/c2ccc(Cl)cc2)N=C1c1ccccc1)c1c(Cl)c(Cl)c(Cl)c(Cl)c1-c1nc2ccccc2[nH]1
TGI [1]: 61.7 µM
TGI [2]: 52.6 µM
TGI [10]: 31.5 µM
TGI [3]: 31.8 µM
TGI [8]: 27.1 µM
TGI [11]: 32.8 µM
TGI [9]: 55.9 µM

CC(=O)C1(c2ccccc2)CCCN(C)CC1 (configuration not stated)
TGI [1]: > 100 µM
TGI [2]: > 100 µM
TGI [3]: > 100 µM
TGI [4]: > 100 µM
TGI [7]: > 100 µM
TGI [8]: > 100 µM
TGI [11]: > 100 µM

COc1ccc(OC)c2sc(N3C(=O)/C(=C/c4ccccc4S)N=C3c3ccccc3)nc12
TGI [1]: 78.8 µM
TGI [2]: 57.2 µM
TGI [10]: 49.5 µM
TGI [3]: > 100 µM
TGI [4]: > 100 µM
TGI [7]: > 100 µM
TGI [8]: 35.2 µM
TGI [11]: > 100 µM
TGI [9]: > 100 µM

O=C1CC(n2cccc2)c2cc(Br)sc21 (configuration not stated)
TGI [1]: > 100 µM
TGI [2]: > 100 µM
TGI [10]: > 100 µM
TGI [4]: > 100 µM
TGI [7]: > 100 µM
TGI [8]: > 100 µM
TGI [11]: > 100 µM
TGI [9]: > 100 µM

CC(=O)C1=C(O)C2(O)C(=O)c3c(c(C)c4ccc(C)c(O)c4c3O)CC2C(N)C1=O (configuration not stated)
TGI [1]: > 21 µM
TGI [2]: 16.7 µM
TGI [3]: 15 µM
TGI [4]: 19 µM
GI50 [7]: 0.73 µM
TGI [7]: 4.99 µM
TGI [8]: 4.47 µM
GI50 [11]: 0.762 µM
TGI [11]: 13.6 µM
TGI [9]: 16.8 µM
TGI [5]: 7.17 µM
TGI [6]: 13.4 µM

Cc1nc(Cl)c(C)c(Cl)n1
TGI [1]: > 100 µM
TGI [2]: > 100 µM
TGI [10]: > 100 µM
TGI [3]: > 100 µM
TGI [4]: > 100 µM
TGI [7]: > 100 µM
TGI [8]: 71.8 µM
TGI [11]: > 100 µM
TGI [9]: > 100 µM

— PubChem BioAssay (NCI)
